Measurements taken from patent US20240049711A1, “HERBICIDE COMPOSITION AND WEED CONTROLLING METHOD” (SUMITOMO CHEMICAL COMPANY, LIMITED, priority 2020, published 2024).
Where a name gives a salt, the structure may show the parent alone.

How the values were obtained:
Type in all cases: in vivo
[1] = test system: Italian ryegrass (Lolium multiflorum); test: Example 212: greenhouse pot test, spray above the pot 21 days after seeding; conditions: rating 0 to 100; application rate compound X 15 g/ha, glyphosate potassium salt 630 g/ha; 200 L/ha; evaluated 6 days after spraying
Protocol: (§1) After filling a plastic pot with soil, Italian ryegrass (Lolium multiflorum) and giant foxtail (Setaria faberi) were seeded therein and grown in a greenhouse.

[2] = test system: giant foxtail (Setaria faberi); test: as above; conditions: rating 0 to 100; application rate compound X 15 g/ha, glyphosate potassium salt 630 g/ha; 200 L/ha; evaluated 6 days after spraying
Protocol: as §1

[3] = test system: Italian ryegrass (Lolium multiflorum); test: Example 208: greenhouse pot test, spray above the pot 21 days after seeding; conditions: rating 0 to 100; application rate compound X 15 g/ha, clethodim 53 g/ha; 200 L/ha; evaluated 6 days after spraying
Protocol: The compound X (55 mg) produced in Reference Production Example 1, 76.5 mg of Emulsogen TS290 (polyoxyethylene tristyryl phenyl ether, manufactured by Clariant) and 76.5 mg of Phenylsulfonat CAL (mixture of 70% calcium dodecylbenzenesulfonate and 30% iso-butanol, manufactured by Clariant) were dissolved in Solvesso 200ND (aromatic hydrocarbon, manufactured by Exxon Mobile Corporation) to make 1 ml in total, thus producing an emulsifiable concentrate (hereinafter referred to as formulation X).
After filling a plastic pot with soil, Italian ryegrass (Loliism multiflorum) was seeded therein and grown in a greenhouse.

[4] = test system: Italian ryegrass (Lolium multiflorum); test: Example 209: greenhouse pot test, spray above the pot 21 days after seeding; conditions: rating 0 to 100; application rate compound X 15 g/ha, pendimethalin 560 g/ha; 200 L/ha; evaluated 6 or 8 days after spraying
Protocol: as §1

[5] = test system: giant foxtail (Setaria faberi); test: as above; conditions: rating 0 to 100; application rate compound X 15 g/ha, pendimethalin 560 g/ha; 200 L/ha; evaluated 6 or 8 days after spraying
Protocol: as §1

[6] = test system: Italian ryegrass; test: Example 213: greenhouse pot test, spray above the pot 21 days after seeding; conditions: rating 0 to 100; application rate compound X 15 g/ha, glufosinate ammonium salt 297 g/ha; 200 L/ha; evaluated 8 days after spraying
[7] = test system: common barnyardgrass (Echinochloa crus-galli); test: Example 214: greenhouse pot test, spray above the pot 25 days after seeding; conditions: rating 0 to 100; application rate compound X 10 g/ha, chlorimuron-ethyl 16 g/ha; 216 L/ha; 18 days after spraying
Protocol: A formulation was produced by dissolving a predetermined amount of chlorimuron-ethyl in DMF containing 2% Tween 20 (polyoxyethylene (20) sorbitan monolaurate) (called chlorimuron-ethyl formulation).
After filling a plastic pot with soil, common barnyardgrass (Echinochloa crus-galli) was seeded therein and grown in a greenhouse. […] Thereafter, the weeds were grown in the greenhouse for 18 days and the herbicidal effect was estimated.

[8] = test system: common barnyardgrass (Echinochloa crus-galli); test: Example 215: greenhouse pot test, spray above the pot 25 days after seeding; conditions: rating 0 to 100; application rate compound X 10 g/ha, mesotrione 35 g/ha; 216 L/ha; 18 days after spraying
Protocol: A formulation was produced by dissolving a predetermined amount of mesotrione in DMF containing 2% Tween 20 (polyoxyethylene (20) sorbitan monolaurate) (called mesotrione formulation).
(§2) After filling a plastic pot with soil, common barnyardgrass (Echinochloa crus-galli) was seeded therein and grown in a greenhouse. […] Thereafter, the weeds were grown in the greenhouse for 18 days and the herbicidal effect was evaluated.

[9] = test system: common barnyardgrass (Echinochloa crus-galli); test: Example 216: greenhouse pot test, spray above the pot 25 days after seeding; conditions: rating 0 to 100; application rate compound X 10 g/ha, metribuzin 105 g/ha; 216 L/ha; 18 days after spraying
Protocol: A formulation was produced by dissolving a predetermined amount of metribuzin in DMF containing 2% Tween 20 (polyoxyethylene (20) sorbitan monolaurate) (called metribuzin formulation).
as §2

[10] = test system: common barnyardgrass (Echinochloa crus-galli); test: Example 217: greenhouse pot test, spray above the pot 25 days after seeding; conditions: rating 0 to 100; application rate (table) compound X 10 g/ha, flumioxazin 30 g/ha; 216 L/ha; 18 days after spraying
Protocol: A formulation was produced by dissolving a predetermined amount of flumioxazin in DMF containing 2% Tween 20 (polyoxyethylene (20) sorbitan monolaurate) (called flumioxazin formulation).
as §2

[11] = test system: common barnyardgrass (Echinochloa crus-galli); test: Example 218: greenhouse pot test, spray above the pot 25 days after seeding; conditions: rating 0 to 100; application rate (table) compound X 10 g/ha, pyroxasulfone 40 g/ha; 216 L/ha; 18 days after spraying
Protocol: A formulation was produced by dissolving a predetermined of pyroxasulfone in DMF containing 2% Tween 20 (polyoxyethylene (20) sorbitan monolaurate) (called pyroxasulfone formulation).
as §2

`O=C(O)CNCP(=O)(O)O` [Glyphosate potassium salt, glyphosate potassium salt] was tested, and the “Herbicidal effect on Italian ryegrass (observed value)” value (“Herbicidal effect on Italian ryegrass” below) [1] was 50 and the “Herbicidal effect on giant foxtail (observed value)” value (“Herbicidal effect on giant foxtail” for short) [2] was 40.
For `CCOC(=O)COC(=O)C1(Oc2cc(-n3c(=O)cc(C(F)(F)F)n(C)c3=O)c(F)cc2Cl)CC1` [Compound X], the “Herbicidal effect on Italian ryegrass” value [3] was 20, the “Herbicidal effect on Italian ryegrass” value [4] was 20 and the “Herbicidal effect on giant foxtail” value [5] was 70. The “Herbicidal effect on Italian ryegrass” value [1] was 20, the “Herbicidal effect on giant foxtail” value [2] was 70 and the “Herbicidal effect on Italian ryegrass” value [6] was 20. The “Herbicidal effect on common barnyardgrass (observed value)” value [7] was 45, the “Herbicidal effect on common barnyardgrass (observed value)” value [8] was 45 and the “Herbicidal effect on common barnyardgrass (observed value)” value [9] was 45. The “Herbicidal effect on common barnyardgrass (observed value)” value [10] was 45 and the “Herbicidal effect on common barnyardgrass (observed value)” value [11] was 45.
In the case of `CCC(CC)Nc1c([N+](=O)[O-])cc(C)c(C)c1[N+](=O)[O-]` [Pendimethalin, pendimethalin], the “Herbicidal effect on Italian ryegrass” value [4] is reported as 0 and the “Herbicidal effect on giant foxtail” value [5] is reported as 0.
With `CCSC(C)CC1CC(=O)C(/C(CC)=N/OC/C=C/Cl)=C(O)C1` (stereo not shown) [Clethodim, clethodim] the “Herbicidal effect on Italian ryegrass” value [3] was 10.
With `CP(=O)(O)CCC(N)C(=O)O` (stereo not shown) [Glufosinate ammonium salt, glufosinate ammonium salt] the “Herbicidal effect on Italian ryegrass” value [6] was 80.
For `CSc1nnc(C(C)(C)C)c(=O)n1N` [Metribuzin, metribuzin], the “Herbicidal effect on common barnyardgrass (observed value)” value [9] was 8.
For `CS(=O)(=O)c1ccc(C(=O)C2C(=O)CCCC2=O)c([N+](=O)[O-])c1` [Mesotrione, mesotrione], the “Herbicidal effect on common barnyardgrass (observed value)” value [8] was 40.
In the case of `CCOC(=O)c1ccccc1S(=O)(=O)NC(=O)Nc1nc(Cl)cc(OC)n1` [Chlorimuron-ethyl, chlorimuron-ethyl], the “Herbicidal effect on common barnyardgrass (observed value)” value [7] is reported as 45.
With `C#CCN1C(=O)COc2cc(F)c(N3C(=O)C4=C(CCCC4)C3=O)cc21` [Flumioxazin, flumioxazin] the “Herbicidal effect on common barnyardgrass (observed value)” value [10] was 55.
For `Cn1nc(C(F)(F)F)c(CS(=O)(=O)C2=NOC(C)(C)C2)c1OC(F)F` [Pyroxasulfone, pyroxasulfone], the “Herbicidal effect on common barnyardgrass (observed value)” value [11] was 2.
